The text below walks through data of patent US20160060352A1, “COMPOSITIONS AND METHODS FOR DETECTION AND TREATMENT OF HEPA[…]” (VIVENTIA BIO INC., priority 2013, published 2016).

In one assay the test system is HuH-7. Put plainly: MTS cell growth assay, HuH-7. The assay is classed as cell-based. The note with it: Homo sapiens, 48 h incubation. (In general: Tetrazolium dyes change colour on reduction, which living cells bring about.)
The next assay concerns HepG2. The assay can be described thus: MTS cell growth assay, HepG2. The assay is classed as cell-based. To be noted: Homo sapiens, 48 h incubation.
Another assay has as its system Hep3B. Put plainly: MTS cell growth assay, Hep3B. To be noted: Homo sapiens, 48 h incubation. In kind it is cell-based.
In a further assay the test system is HuH-1. Put plainly: MTS cell growth assay, HuH-1. The assay is classed as cell-based. The note with it: Homo sapiens, 48 h incubation.
The subject of the next assay is HLE. Put plainly: MTS cell growth assay, HLE. To be noted: Homo sapiens, 48 h incubation. In kind it is cell-based. The protocol: (§1) Human HCC cell lines Hep3B, PLC/PRF/5, and SK-Hep1 were obtained from the American Type Culture Collection (Manassas, Va., USA). Other human HCC cell lines HuH-7, HuH-1, HepG2, HLE, and HLF were obtained from the Human Science Research Resources Bank (Osaka, Japan). HuH-7, HepG2, Hep3B, and SK-Hep1 cells were cultured in log growth phase in 1640 RPMI (Invitrogen, Carlsbad, Calif.) and HuH-1, HLE, HLF, and PLC/PRF/5, cells were cultured in Dulbecco's modified Eagle medium (Invitrogen) with 5% fetal bovine serum (Sigma, St. Louis, Mo.) for HLF cells or 10% FBS for the remaining cell lines. All media were supplemented with 1% PenStrep (Sigma). […]
(§2) HCC cell lines were seeded in 96-well plates at 3×10^3 cells per well in a total volume of 50 μl of culture media. […] Cell viability was monitored using CellTiter 96 AQueous One Solution Cell Proliferation Assay Kit (Promega) and half-maximal inhibitory concentration (IC50) values were calculated. The mean values and standard deviations of IC50 were calculated in triplicate for each cell line. […] The remaining viable cells were counted using a Cytorecon (GE Healthcare) after staining with trypan blue to exclude the dead cells. Each analysis was performed in triplicate, and the data expressed as means±standard deviations.

A further assay concerns HLF. Put plainly: MTS cell growth assay, HLF. To be noted: Homo sapiens, 48 h incubation. In kind it is cell-based. The method, then:
as §1, §2

A further assay has as its system PLC/PRF/5. The assay can be described thus: MTS cell growth assay, PLC/PRF/5. The assay is classed as cell-based. To be noted: Homo sapiens, 48 h incubation. The protocol: as §1, §2
The subject of another assay is SK-Hep1 cells. Put plainly: MTS cell growth assay, SK-Hep1. In kind it is cell-based. To be noted: Homo sapiens, 48 h incubation. The method, then:
as §1, §2

For a further assay, the system named is Ep-CAM^low cell lines. Put plainly: Cell proliferation assay (viable cell count, trypan blue), Ep-CAM^low cell lines. The assay is classed as cell-based, human. The note with it: VB4-845 10 pM and 5-FU 1-5 μg/ml, 48 h; p>0.05. The protocol:
(A) Expression of Ep-CAM was analyzed by flow cytometry in 8 HCC cell lines. […] Cell growth was measured in MTS assays. […] Columns, alive cells (%); vertical bars, standard deviation.
as §2, with “line. To investigate cell viability, HCC cell lines were seeded in 6-well plates at 1×10^5 cells per well in a total volume of 2 ml of culture media.” for “line.”

For assay [1], the system named is Ep-CAM^high cell lines (HuH-7, HepG2, Hep3B and HuH-1). Put plainly: Sphere formation assay. The assay is classed as cell-based, human. The note with it: 48 h treatment (VB4-845 1-10 pM, 5-FU 1-5 μg/ml), 7 days of culture.
Procedure: Briefly, 1×10^6 cells of HuH-7, HepG2, Hep3B and HuH-1 were seeded in four 10 cm dishes. […] After 48h, the medium was changed to drug-free medium and incubated for 24 h. After cell viability was confirmed by trypan blue exclusion, the remaining viable cells were collected and plated separately at 1×10^2 cells in low attachment plates (96-well Ultra Low Cluster Plate; Costar, Corning, N.Y.), and incubated in serum-free Dulbecco's modified Eagle medium/F12 medium (Invitrogen). Sphere formation was observed using AxioObserver (Carl Zeiss, Oberkochen, Germany), and the images were acquired digitally using AxioVision software (Carl Zeiss).
Another assay has as its system CD133. The assay can be described thus: FACS analysis of stem/progenitor marker CD133 after treatment. The note with it: HuH-7, HepG2, and Hep3B cells, compared with the control. In kind it is cell-based, human.
The next assay concerns CD13. The assay can be described thus: FACS analysis of stem/progenitor marker CD13 after treatment. The assay is classed as cell-based, human. The note with it: HuH-7 and Hep3B cells. (In general: Flow cytometry measures light scatter and fluorescence of single cells or particles in a stream.)
The test system of assay [2] is HuH-7 subcutaneous xenografts. The assay can be described thus: Subcutaneous xenograft model. In kind it is in vivo, NOD.CB17-PRkdcScid/J mice. To be noted: three weeks after initiation; VB4-845 30 μg/kg i.v., 5-FU 30 mg/kg i.p., three times a week for 2 weeks.
Procedure: Twenty five-week-old female NOD.CB17-PRkdcScid/J mice purchased from Charles River Laboratory Inc. (Kanagawa, Japan) were injected with 1×10^6 HuH-7 cells mixed with the same amount of Matrigel (BD Biosciences) subcutaneously into the both flanks of mice under anesthesia. […] Tumor size was measured using calipers three times a week and tumor volumes calculated using the following equation: volume=(length)×(width)2×0.5. The mice were sacrificed three weeks after the initiation of treatment.

≈ marks a conversion by molar mass, not a printed value.

Source text for CD133: For flow cytometry, FACSCanto™ II (BD Biosciences, San Jose, Calif.) was used. Cancer cells were washed with phosphate-buffered saline, and then enzymatically dissociated with 0.05% trypsin-EDTA (Invitrogen). The trypsinized cells were suspended in FACS buffer, and analyzed on FACSCanto™ II using FACSDiva software (BD Biosciences). For the analysis of hepatic stem/progenitor markers, primary antibodies against Ep-CAM (#324206; Biolegend, San Diego, Calif.), CD13 (#555394; BD Pharmingen), CD44 (#555479; BD Pharmingen), CD90 (#328110; BioLegend), CD133 (#130-080-801; Miltenyi Biotec, Gladbach, Germany), Mouse IgG1 κtype (#555749; BioLegend), and Mouse IgG2b κtype (#400314; BioLegend) were used. All antibodies were conjugated directly with phycoerythrin (PE). The immunostaining and analysis were performed according to the instructions from the manufacturer.

Turning to `O=c1[nH]cc(F)c(=O)[nH]1` [5-FU, 5-fluorouracil], the IC50 (commonly the midpoint of a concentration-inhibition curve) in the assay with HuH-7 was 0.8 ± 0.1 µg/mL (≈ 6.15 µM); with HepG2 it was 39.5 ± 9.6 µg/mL (≈ 304 µM); in the assay with Hep3B, 5.9 ± 1.8 µg/mL (≈ 45.4 µM); with HuH-1, 11.3 ± 6.3 µg/mL (≈ 86.9 µM); in the assay on HLE, 16.5 ± 6.6 µg/mL (≈ 127 µM); in the assay with HLF, 33.5 ± 17.2 µg/mL (≈ 258 µM). Also, the IC50 with PLC/PRF/5 is 55.6 ± 11.2 µg/mL (≈ 427 µM); in the assay with SK-Hep1 cells it was 4.3 ± 0.5 µg/mL (≈ 33.1 µM). Besides, in the assay on Ep-CAM^low cell lines, the “cell proliferation (alive cells)” value is “suppressed cell proliferation to the same extent as the combination of VB4-845 and 5-FU”. In assay [1], the “sphere formation by surviving cells” value was “formed spheres”. Also, the “positive rate of CD133” value in the assay with CD133 is recorded as “significantly increased”. Further, the “positive rate of CD13” value in the assay with CD13 was “significantly increased”. Further, the volume of tumors in assay [2] is recorded as 555±147 mm^3.
